Patent US9204653B2, “5-fluoro pyrimidine derivatives” (DOW AGROSCIENCES LLC, priority 2008, dated 2015)
Read-outs that look alike come from different tables or passages of the source.

Legend:
[1] = system: Mycosphaerella graminicola; Anamorph: Septoria tritici; Bayer Code SEPTTR; experiment: Leaf blotch of wheat, foliar fungicide treatment, one day protectant (1DP) or three day curative (3DC); type: in vivo, Septoria tritici on wheat plants (variety Yuma); conditions: Zymoseptoria tritici
[2] = system: Cercospora beticola; Bayer Code CERCBE; experiment: Leaf spot of sugar beets; type: in vivo, Cercospora beticola on sugar beets (variety HH-88); conditions: 24 h, % disease control rating, one day protectant; for pest or weed control at 25 ppm: read-out: CERCBE 1 DP 25 ppm; for pest or weed control at 75 ppm: read-out: CERCBE 1 DP 75 ppm
[3] = system: Venturia inaequalis; Bayer Code VENTIN; experiment: Apple scab; type: in vivo; conditions: 24 h, % disease control rating, one day protectant; for pest or weed control at 25 ppm: read-out: VENTIN 1 DP 25 ppm; for pest or weed control at 75 ppm: read-out: VENTIN 1 DP 75 ppm
[4] = 24 h, one day protectant (1DP), rating of percent disease control, read-out: SETTTR 1DP 25 ppm
[5] = 24 h, one day protectant (1DP), rating of percent disease control, read-out: SEPTTR 1DP 100 ppm
[6] = 72 h, three day curative (3DC), rating of percent disease control, read-out: SEPTTR 3DC 25 ppm
[7] = 72 h, three day curative (3DC), rating of percent disease control, read-out: SEPTTR 3DC 100 ppm
[8] = 24 h, one day protectant, rating of percent disease control, read-out: SETTTR 1DP 25 ppm
[9] = 24 h, one day protectant, rating of percent disease control, read-out: SEPTTR 1DP 100 ppm
[10] = 72 h, three day curative, rating of percent disease control, read-out: SEPTTR 3DC 25 ppm
[11] = 72 h, three day curative, rating of percent disease control, read-out: SEPTTR 3DC 100 ppm
[12] = 24 h, one day protectant (1DP), percent disease control rating, read-out: SETTTR 1DP 25 ppm
[13] = 24 h, one day protectant (1DP), percent disease control rating, read-out: SEPTTR 1DP 100 ppm
[14] = 72 h, three day curative (3DC), percent disease control rating, read-out: SEPTTR 3DC 25 ppm
[15] = 72 h, three day curative (3DC), percent disease control rating, read-out: SEPTTR 3DC 100 ppm

Row | Compound | pest or weed control at 25 ppm [1, 4] | pest or weed control at 100 ppm [1, 5] | pest or weed control at 25 ppm [1, 6] | pest or weed control at 100 ppm [1, 7] | pest or weed control at 25 ppm [2] | pest or weed control at 75 ppm [2] | pest or weed control at 25 ppm [3] | pest or weed control at 75 ppm [3] | pest or weed control at 25 ppm [1, 8] | pest or weed control at 100 ppm [1, 9] | pest or weed control at 25 ppm [1, 10] | pest or weed control at 100 ppm [1, 11] | pest or weed control at 25 ppm [1, 12] | pest or weed control at 100 ppm [1, 13] | pest or weed control at 25 ppm [1, 14] | pest or weed control at 100 ppm [1, 15]
1 | CC(C)(C)OC(=O)NOc1ncc(F)c(N)n1 [Compound 481] | 76 to 100% | 76 to 100% | 76 to 100% | 76 to 100% | 26 to 50% | 76 to 100% | 76 to 100% | 76 to 100% | – | – | – | – | – | – | – | –
2 | O=C(OCNc1nc(OCc2ccc(F)cc2)ncc1F)C1CC1 [Compound 410] | 51 to 75% | 76 to 100% | 51 to 75% | 76 to 100% | 26 to 50% | 26 to 50% | 26 to 50% | 51 to 75% | – | – | – | – | – | – | – | –
3 | O=C(Nc1nc(OCc2ccc(F)cc2)ncc1F)c1cccc2nnsc12 [Compound 411] | 76 to 100% | 76 to 100% | 26 to 50% | 26 to 50% | 26 to 50% | 26 to 50% | 51 to 75% | 51 to 75% | – | – | – | – | – | – | – | –
4 | Nc1nc(OC2CCCc3cccnc32)ncc1F (centres unmarked) [Compound 560] | – | – | – | – | 0 to 25% | 26 to 50% | 0 to 25% | 76 to 100% | 0 to 25% | 26 to 50% | 0 to 25% | 76 to 100% | – | – | – | –
5 | CN(C)/C=N/c1nc(OCc2cccs2)ncc1F [Compound 570] | – | – | – | – | 0 to 25% | 26 to 50% | 26 to 50% | 76 to 100% | 76 to 100% | 76 to 100% | 76 to 100% | 76 to 100% | – | – | – | –
6 | CC/C(=N\c1nc(OCc2ccc(F)cc2)ncc1F)N(C)C [Compound 24, N′-[5-Fluoro-2-(4-fluorobenzyloxy)pyrimidin-4-yl]-N,N-dimethyl-propionamidine] | – | – | – | – | 0 to 25% | 0 to 25% | 26 to 50% | 76 to 100% | – | – | – | – | 76 to 100% | 76 to 100% | 76 to 100% | 76 to 100%
7 | O=C(Nc1nc(OCc2cccc(F)c2)ncc1F)OCc1ccc([N+](=O)[O-])cc1 [Compound 180] | – | – | – | – | 0 to 25% | 26 to 50% | 26 to 50% | 0 to 25% | – | – | – | – | 0 to 25% | 51 to 75% | 0 to 25% | 0 to 25%
8 | Nc1nc(OC(Cc2ccccc2)c2ccc(F)cc2)ncc1F (centres unmarked) [Compound 61] | – | – | – | – | 0 to 25% | 0 to 25% | 76 to 100% | 51 to 75% | – | – | – | – | 76 to 100% | 76 to 100% | 0 to 25% | 0 to 25%
9 | CC(Oc1ncc(F)c(N)n1)c1cccc2ccccc12 (centres unmarked) [Compound 335] | 76 to 100% | 76 to 100% | 76 to 100% | 76 to 100% | 26 to 50% | 76 to 100% | 76 to 100% | 76 to 100% | – | – | – | – | – | – | – | –
10 | CCOCNc1nc(OCc2ccc(OC)c(F)c2)ncc1F [Compound 452] | 76 to 100% | 76 to 100% | 76 to 100% | 76 to 100% | 0 to 25% | 0 to 25% | 0 to 25% | 26 to 50% | – | – | – | – | – | – | – | –
11 | NN(c1nc(OCc2ccc(F)cc2)ncc1F)C1CCCCC1 [Compound 353] | 0 to 25% | 0 to 25% | 0 to 25% | 0 to 25% | 26 to 50% | 26 to 50% | 26 to 50% | 76 to 100% | – | – | – | – | – | – | – | –
12 | Fc1ccccc1CNC(=S)Nc1nc(OCc2cccs2)ncc1F [Compound 169] | – | – | – | – | 0 to 25% | 0 to 25% | 51 to 75% | 26 to 50% | – | – | – | – | 51 to 75% | 76 to 100% | 0 to 25% | 0 to 25%
13 | CONc1nc(OCc2ccc(F)cc2)ncc1F [Compound 233] | 51 to 75% | 76 to 100% | 76 to 100% | 76 to 100% | 0 to 25% | 0 to 25% | 0 to 25% | 51 to 75% | – | – | – | – | – | – | – | –
14 | CN1CCCC1CCOc1ncc(F)c(N)n1 (centres unmarked) [Compound 384] | 51 to 75% | 76 to 100% | 26 to 50% | 76 to 100% | 0 to 25% | 0 to 25% | 51 to 75% | 0 to 25% | – | – | – | – | – | – | – | –
15 | Cn1nc(C(F)(F)F)c(COc2ncc(F)c(N)n2)c1Cl [Compound 211] | 76 to 100% | 76 to 100% | 76 to 100% | 76 to 100% | 0 to 25% | 0 to 25% | 26 to 50% | 51 to 75% | – | – | – | – | – | – | – | –
16 | CCCNC(=S)Nc1nc(OCc2ccn(C)n2)ncc1F [Compound 122] | – | – | – | – | 26 to 50% | 26 to 50% | 76 to 100% | 76 to 100% | – | – | – | – | 0 to 25% | 51 to 75% | 26 to 50% | 76 to 100%
17 | O=C1OC(Nc2nc(OCc3ccc(F)cc3)ncc2F)c2ccccc21 (centres unmarked) [Compound 226] | 76 to 100% | 76 to 100% | 76 to 100% | 76 to 100% | 0 to 25% | 26 to 50% | 26 to 50% | 76 to 100% | – | – | – | – | – | – | – | –
18 | O=[N+]([O-])c1ccccc1SNc1nc(OCc2cc(C(F)(F)F)cc(C(F)(F)F)c2)ncc1F [Compound 125] | – | – | – | – | 26 to 50% | 26 to 50% | 26 to 50% | 76 to 100% | – | – | – | – | 26 to 50% | 26 to 50% | 0 to 25% | 0 to 25%
19 | CN(Cc1ccccc1F)c1nc(OCc2ccc(F)cc2)ncc1F [Compound 164] | – | – | – | – | 0 to 25% | 0 to 25% | 26 to 50% | 51 to 75% | – | – | – | – | 26 to 50% | 51 to 75% | 0 to 25% | 51 to 75%
